Results published in patent publication US20250215039A1, “NUCLEOSIDES FOR TREATING CANCER” (PRIMEFOUR THERAPEUTICS, INC., priority 2022, published 2025).
Like-named read-outs stand apart in the source and are kept apart here.

System: cancer cell lines
Experiment: Cancer cell proliferation activity (CellTiterGlo, 72 h)
Format: cell-based
Conditions: 72 h, 72 h, read-out: IC50
Outline: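 Readout is CellTiterGlo luminescence after 72 h compound exposure (0.1% DMSO final), started one day post-seeding, at 37 °C.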

## Nc1nc(F)nc2c1ncn2[C@H]1C[C@H](O)[C@](CO)(CF)O1 [compound 150, (2R,3S,5R)-5-(6-amino-2-fluoro-9H-purin-9-yl)-2-(fluoromethyl)-2-(hydroxymethyl)tetrahydrofuran-3-ol]
5637 cell line (bladder)
  IC50: 4.05 µM
AS49 cell line (lung)
  IC50: > 50 µM
CLS439 cell line (bladder)
  IC50: > 50 µM
HS729 cell line (muscle)
  IC50: 12.3 µM
JAR cell line (placenta)
  IC50: 1.74 µM
Homo sapiens, 22Rv1, 72 h, 22RV1 cell line (prostate)
  IC50: > 50 µM
Homo sapiens, 786-0, 72 h, 786O cell line (kidney)
  IC50: 2.06 µM
Homo sapiens, A204, 72 h, A204 cell line (muscle)
  IC50: 3.33 µM
Homo sapiens, A673, 72 h, A673 cell line (bone)
  IC50: > 50 µM
Homo sapiens, A2780, 72 h, A2780 cell line (ovary)
  IC50: 4.62 µM
Homo sapiens, A-375, 72 h, A375 cell line (skin)
  IC50: 2.32 µM
Homo sapiens, A-431, 72 h, A431 cell line (skin)
  IC50: 2.32 µM
Homo sapiens, ACHN, ACHN cell line (kidney)
  IC50: > 50 µM
Homo sapiens, ASPC1, 72 h, ASPC1 cell line (pancreas)
  IC50: 2.3 µM
Homo sapiens, BT-20, 72 h, BT20 cell line (breast)
  IC50: 2.03 µM
Homo sapiens, BXPC-3, 72 h, BXPC3 cell line (pancreas)
  IC50: > 50 µM
Homo sapiens, C-33-A, C33A cell line (cervical)
  IC50: 4.21 µM
Homo sapiens, CAKI-1, 72 h, CAKI1 cell line (kidney)
  IC50: 0.32 µM
Homo sapiens, COLO 205, 72 h, COLO205 cell line (colon)
  IC50: > 50 µM
Homo sapiens, COLO-678, 72 h, COLO678 cell line (colon)
  IC50: > 50 µM
Homo sapiens, Ca-Ski, CASKI cell line (cervical)
  IC50: 1.69 µM
Homo sapiens, Caco-2, 72 h, CACO2 cell line (colon)
  IC50: 3.6 µM
Homo sapiens, Calu-6, 72 h, CALU6 cell line (lung)
  IC50: 4.12 µM
Homo sapiens, DLD-1, 72 h, DLD1 cell line (colon)
  IC50: > 50 µM
Homo sapiens, DU-145, 72 h, DU145 cell line (prostate)
  IC50: 1.47 µM
Homo sapiens, EFO-21, 72 h, EFO21 cell line (ovary)
  IC50: 3.32 µM
Homo sapiens, EJ-28, 72 h, EJ28 cell line (bladder)
  IC50: 3.49 µM
Homo sapiens, Granta-519, 72 h, GRANTA-519 cell line (hematological)
  IC50: 4.01 µM
Homo sapiens, HCT-15, 72 h, HCT15 cell line (colon)
  IC50: > 50 µM
Homo sapiens, HCT-116, 72 h, HCT116 cell line (colon)
  IC50: 2.89 µM
Homo sapiens, HEK293, 72 h, HEK293 cell line (kidney)
  IC50: 2.46 µM
Homo sapiens, HL-60, 72 h, HL-60 cell line (hematological)
  IC50: 3.85 µM
Homo sapiens, HT-29, 72 h, HT29 cell line (colon)
  IC50: 1.46 µM
Homo sapiens, HT-1080, 72 h, HT1080 cell line (connective tissue)
  IC50: > 50 µM
Homo sapiens, HeLa, HELA cell line (cervical)
  IC50: 4.53 µM
Homo sapiens, HepG2, 72 h, HEPG2 cell line (liver)
  IC50: 2.96 µM
Homo sapiens, Hs-578T, HS578T cell line, breast
  IC50: 6.12 µM
Homo sapiens, IGROV-1, 72 h, IGROV1 cell line (ovary)
  IC50: 2.03 µM
Homo sapiens, IMR-90, 72 h, IMR90 cell line, lung
  IC50: 4.24 µM
Homo sapiens, J82, 72 h, J82 cell line (bladder)
  IC50: 4.64 µM
Homo sapiens, JEG-3, 72 h, JEG3 cell line (placenta)
  IC50: 2.82 µM
Homo sapiens, JIMT-1, 72 h, JIMT1 cell line (breast)
  IC50: 1.23 µM
Homo sapiens, K562, 72 h, K-562 cell line (hematological)
  IC50: > 50 µM
Homo sapiens, Kasumi 1, 72 h, KASUMI-1 cell line (hematological)
  IC50: 2.16 µM
Homo sapiens, L-363, 72 h, L-363 cell line (hematological)
  IC50: 3.36 µM
Homo sapiens, LoVo, LOVO cell line (colon)
  IC50: 1.61 µM
Homo sapiens, MCF7, 72 h, MCF7 cell line (breast)
  IC50: > 50 µM
Homo sapiens, MDA-MB-231, 72 h, MDAMB231 cell line (breast)
  IC50: > 50 µM
Homo sapiens, MDA-MB-435, 72 h, MDAMB435 cell line (skin)
  IC50: > 50 µM
Homo sapiens, MDA-MB-436, 72 h, MDAMB436 cell line (breast)
  IC50: 3.22 µM
Homo sapiens, MDA-MB-468, 72 h, MDAMB468 cell line (breast)
  IC50: 4.45 µM
Homo sapiens, MG-63, 72 h, MG63 cell line (bone)
  IC50: > 50 µM
Homo sapiens, MHH-ES-1, 72 h, MHHES1 cell line (bone)
  IC50: 2.91 µM
Homo sapiens, MIA PaCa-2, 72 h, MIAPACA2 cell line (pancreas)
  IC50: > 50 µM
Homo sapiens, MINO, MINO cell line (hematological)
  IC50: 1.08 µM
Homo sapiens, MV4-11, 72 h, MV4-11 cell line (hematological)
  IC50: 0.63 µM
Homo sapiens, NCI-H23, 72 h, NCI-H23 cell line (lung)
  IC50: 3.29 µM
Homo sapiens, NCI-H82, 72 h, NCIH82 cell line (lung)
  IC50: 3.77 µM
Homo sapiens, NCI-H292, 72 h, NCIH292 cell line (lung)
  IC50: > 50 µM
Homo sapiens, NCI-H460, 72 h, NCIH460 cell line (lung)
  IC50: 3.37 µM
Homo sapiens, OVCAR-3, 72 h, OVCAR3 cell line (ovary)
  IC50: 2.05 µM
Homo sapiens, OVCAR-4, 72 h, OVCAR4 cell line (ovary)
  IC50: 3.52 µM
Homo sapiens, PANC-1, 72 h, PANC1 cell line (pancreas)
  IC50: > 50 µM
Homo sapiens, PC-3, 72 h, PC3 cell line (prostate)
  IC50: 5.77 µM
Homo sapiens, PLC-PRF-5, 72 h, PLCPRF5 cell line (liver)
  IC50: > 50 µM
Homo sapiens, Panc1005, 72 h, PANC1005 cell line (pancreas)
  IC50: 1.41 µM
Homo sapiens, RD, RD cell line (muscle)
  IC50: 6.72 µM
Homo sapiens, Ramos, RAMOS cell line (hematological)
  IC50: 2.44 µM
Homo sapiens, SAOS-2, 72 h, SAOS2 cell line (bone)
  IC50: 3.56 µM
Homo sapiens, SF-268, 72 h, SF268 cell line (brain)
  IC50: > 50 µM
Homo sapiens, SF-295, 72 h, SF295 cell line (brain)
  IC50: > 50 µM
Homo sapiens, SK-BR-3, 72 h, SKBR3 cell line (breast)
  IC50: 1.33 µM
Homo sapiens, SK-HEP1, 72 h, SKHEP1 cell line (liver)
  IC50: > 50 µM
Homo sapiens, SK-LMS-1, 72 h, SKLMS1 cell line (uterus)
  IC50: 2.29 µM
Homo sapiens, SK-MEL-5, 72 h, SKMEL5 cell line, skin
  IC50: > 50 µM
Homo sapiens, SK-MEL-28, 72 h, SKMEL28 cell line (skin)
  IC50: 9.02 µM
Homo sapiens, SK-N-AS, SKNAS cell line (brain)
  IC50: 6.83 µM
Homo sapiens, SK-N-SH, SKNSH cell line (brain)
  IC50: 2.91 µM
Homo sapiens, SK-OV-3, 72 h, SKOV3 cell line (ovary)
  IC50: 3.62 µM
Homo sapiens, SNB-75, 72 h, SNB75 cell line (brain)
  IC50: 14.9 µM
Homo sapiens, SU-DHL10, 72 h, SU-DHL-10 cell line (hematological)
  IC50: 2.62 µM
Homo sapiens, SU-DHL-6, 72 h, SU-DHL-6 cell line (hematological)
  IC50: 2.1 µM
Homo sapiens, SW-620, 72 h, SW620 cell line (colon)
  IC50: 3.12 µM
Homo sapiens, T-24, 72 h, T24 cell line (bladder)
  IC50: 6.26 µM
Homo sapiens, TE-671, 72 h, TE671 cell line (muscle)
  IC50: 12.6 µM
Homo sapiens, THP-1, 72 h, THP-1 cell line (hematological)
  IC50: 5.5 µM
Homo sapiens, U2OS, U2OS cell line (bone)
  IC50: > 50 µM
Homo sapiens, U-87 MG, U87MG cell line (brain)
  IC50: > 50 µM
Homo sapiens, UMUC3, 72 h, UMUC3 cell line (bladder)
  IC50: > 50 µM
Homo sapiens, UO-31, 72 h, UO31 cell line (kidney)
  IC50: 4.54 µM
Homo sapiens, WSU-NHL, WSU-NHL cell line (hematological)
  IC50: 4.87 µM
MT-3, 72 h, MT3 cell line (breast)
  IC50: 3.9 µM
NCI-H358M, NCIH358M cell line (lung)
  IC50: 2.63 µM
PBMC, PBMC (hematological)
  IC50: > 50 µM
RD-ES, RDES cell line (bone)
  IC50: 4.48 µM
